Laboratory results as given in ChEMBL document CHEMBL4715854, “Discovery of Roblitinib (FGF401) as a Reversible-Covalent Inhibitor of the Kinase Activity of Fibroblast Growth Factor Receptor 4” (J Med Chem, 2020).
Converted amounts (≈) assume the structure as drawn.

Experiments:
[1] = Drug metabolism in Crl:CD (SD) rat at 1 mg/kg, iv assessed as N-(5-cyanopyridin-2-yl)-7-formyl-3,4-dihydro-1,8-naphthyridine-1(2H)-carboxamide metabolite formation by LC-MS/MS analysis; format: ADME, organism-based; conditions: in vivo
[2] = Drug metabolism in rat liver microsomes assessed as N-(5-cyanopyridin-2-yl)-7-formyl-3,4-dihydro-1,8-naphthyridine-1(2H)-carboxamide metabolite formation in presence of NADPH by LC-MS analysis; format: ADME, Microsome
[3] = Cmax in mouse xenografted with human Huh-7 cells at 6 mg/kg, po qd administered for 8 days; format: ADME, organism-based; set-up: route oral, dose 6 mg/kg, time 8 day; conditions: in vivo
[4] = Volume of distribution at steady state in female Balb/c mouse at 1 mg/kg, iv or 3 mg/kg, po; format: ADME, organism-based; conditions: in vivo, read-out: Vdss
[5] = Half-life in Sprague-Dawley rat at 0.5 mg/kg, iv or 3 mg/kg, po measured upto 24 hrs by LC-MS/MS analysis; format: ADME, organism-based; conditions: in vivo
[6] = Half life in dog intestinal S9 fraction in presence of NADPH; format: ADME, subcellular, Canis lupus familiaris, Intestine; conditions: time 120 min
[7] = Dissociation constant, pKa of compound by potentiometric titration method; format: physicochemical
[8] = Apparent permeability of compound across basolateral to apical side in human Caco2 cells at 10 mM incubated for 120 mins by lucifer yellow based LC/MS/MS analysis; format: ADME, cell-based; conditions: Caco-2
[9] = Clearance in human liver microsome at 10 mM measured after 15 mins in presence of NADPH by LC-MS analysis; format: ADME; conditions: liver microsomes, read-out: CLH
[10] = Half life in human liver S9 fraction at 1 uM in presence of NADPH incubated upto 120 mins by LC-MS/MS analysis; format: ADME, subcellular
[11] = Half life in mouse liver S9 fraction at 1 uM in presence of NADPH incubated upto 120 mins by LC-MS/MS analysis; format: ADME, subcellular
[12] = Clearance in rat liver microsome at 10 mM measured after 15 mins in presence of NADPH by LC-MS analysis; format: ADME; conditions: liver microsomes, read-out: CLH
[13] = Volume of distribution at steady state in Crl:CD (SD) rat at 1 mg/kg, iv or 3 mg/kg, po measured upto 24 hrs by LC-MS/MS analysis; format: ADME, organism-based; conditions: in vivo, read-out: Vdss
[14] = Cmax in mouse xenografted with human Huh-7 cells at 12 mg/kg, po administered every other day for 8 days; format: ADME, organism-based; set-up: route oral, time 8 day, dose 12 mg/kg; conditions: in vivo
[15] = Half life in mouse intestinal S9 fraction in presence of NADPH; format: ADME, subcellular, Intestine
[16] = Thermodynamic solubility of compound in phosphate buffer at pH 6.8 measured after 15 mins by shake-flask method based LC-HRMS analysis; format: physicochemical; conditions: read-out: Therm_solubility
[17] = Half life in human intestinal S9 fraction in presence of NADPH; format: ADME, subcellular, Intestine
[18] = Volume of distribution at steady state in Beagle dog at 0.1 mg/kg, iv or 0.3 mg/kg, po by LC-MS/MS analysis; format: ADME, organism-based, Canis lupus familiaris; conditions: in vivo, read-out: Vdss
[19] = AUC (0-48 hrs) in mouse xenografted with human Huh-7 cells at 3 mg/kg, po BID administered for 8 days; format: ADME, organism-based; set-up: route oral, dose 3 mg/kg, time 8 day; conditions: in vivo, 192 h
[20] = Half-life in Beagle dog at 0.1 mg/kg, iv or 0.3 mg/kg, po by LC-MS/MS analysis; format: ADME, organism-based, Canis lupus familiaris; conditions: in vivo
[21] = Oral bioavailability in Crl:CD (SD) rat at 3 mg/kg measured upto 24 hrs by LC-MS/MS analysis; format: ADME, organism-based; conditions: Crl:CD (SD), in vivo
[22] = Oral bioavailability in Beagle dog at 0.3 mg/kg by LC-MS/MS analysis; format: ADME, organism-based, Canis lupus familiaris; conditions: Beagle, in vivo
[23] = Clearance in mouse liver microsome at 10 mM measured after 15 mins in presence of NADPH by LC-MS analysis; format: ADME; conditions: liver microsomes, read-out: CLH
[24] = Clearance in Sprague-Dawley rat at 0.5 mg/kg, iv or 3 mg/kg, po measured upto 24 hrs by LC-MS/MS analysis; format: ADME, organism-based; conditions: in vivo
[25] = Clearance in Beagle dog at 0.1 mg/kg, iv or 0.3 mg/kg, po by LC-MS/MS analysis; format: ADME, organism-based, Canis lupus familiaris; conditions: in vivo
[26] = Clearance in dog liver microsome at 10 mM measured after 15 mins in presence of NADPH by LC-MS analysis; format: ADME, Canis lupus familiaris; conditions: liver microsomes, read-out: CLH
[27] = AUC (0-48 hrs) in mouse xenografted with human Huh-7 cells at 12 mg/kg, po administered every other day for 8 days; format: ADME, organism-based; set-up: route oral, time 8 day, dose 12 mg/kg; conditions: in vivo
[28] = Half life in dog liver S9 fraction at 1 uM in presence of NADPH incubated upto 120 mins by LC-MS/MS analysis; format: ADME, subcellular, Canis lupus familiaris
[29] = Clearance in dog cryopreserved hepatocytes at 1 uM incubated from 1 to 80 mins by LC-MS/MS analysis; format: ADME, cell-based, Canis lupus familiaris, Hepatocyte; conditions: time 1-80 min
[30] = Cmax in mouse xenografted with human Huh-7 cells at 3 mg/kg, po BID administered for 8 days; format: ADME, organism-based; set-up: route oral, time 8 day, dose 3 mg/kg; conditions: in vivo
[31] = AUC (0-48 hrs) in mouse xenografted with human Huh-7 cells at 6 mg/kg, po qd administered for 8 days; format: ADME, organism-based; set-up: route oral, time 8 day, dose 6 mg/kg; conditions: in vivo
[32] = Half life in rat liver S9 fraction at 1 uM in presence of NADPH incubated upto 120 mins by LC-MS/MS analysis; format: ADME, subcellular
[33] = Clearance in rat cryopreserved hepatocytes at 1 uM incubated from 1 to 80 mins by LC-MS/MS analysis; format: ADME, cell-based, Hepatocyte; conditions: time 1-80 min
[34] = Half life in rat intestinal S9 fraction in presence of NADPH; format: ADME, subcellular, Intestine
[35] = Apparent permeability of compound across apical to basolateral side in human Caco2 cells at 10 mM incubated for 120 mins by lucifer yellow based LC/MS/MS analysis; format: ADME, cell-based; conditions: Caco-2
[36] = Oral bioavailability in female Balb/c mouse at 3 mg/kg; format: ADME, organism-based; conditions: in vivo
[37] = Clearance in mouse cryopreserved hepatocytes at 1 uM incubated from 1 to 80 mins by LC-MS/MS analysis; format: ADME, cell-based, Hepatocyte; conditions: time 1-80 min
[38] = Half-life in female Balb/c mouse at 1 mg/kg, iv or 3 mg/kg, po; format: ADME, organism-based; conditions: in vivo
[39] = Clearance in human cryopreserved hepatocytes at 1 uM incubated from 1 to 80 mins by LC-MS/MS analysis; format: ADME, cell-based, Hepatocyte; conditions: time 1-80 min

What does the source list for `N#Cc1ccc(NC(=O)N2CCCc3ccc(CO)nc32)nc1`?
Drug metabolism [1]: 1.3 nM; Drug metabolism [2]: 1.3 nM

What does the source list for `COCCOc1cc(NC(=O)N2CCCc3cc(CN4CCN(C)CC4=O)c(C=O)nc32)ncc1C#N`?
Cmax [3]: 770 nM; Vd [4]: 2.3 L/kg; half-life [5]: 4.4 h; half-life at 1 µM [6]: > 2 h; pKa [7]: 5.3; Papp B→A at 2 h, 10000 µM [8]: 11 ×10⁻⁶ cm/s; microsomal CLint at […], 10000 µM [9]: 29 µL/min/mg; half-life at 1 µM [10]: > 2 h; half-life at 1 µM [11]: > 2 h; microsomal CLint at […], 10000 µM [12]: 18 µL/min/mg; Vd [13]: 3.9 L/kg; Cmax [14]: 1260 nM; half-life [15]: > 2 h; solubility thermodynamic at […] [16]: 16 µM (≈ 8.12 µg/mL); half-life [17]: > 2 h; Vd [18]: 3 L/kg; AUC [19]: 3.6 µM·h; half-life [20]: 6.5 h; bioavailability [21]: 20%; bioavailability [22]: 69%; microsomal CLint at […], 10000 µM [23]: 18 µL/min/mg; clearance [24]: 19 mL/min/kg; clearance [25]: 8 mL/min/kg; microsomal CLint at […], 10000 µM [26]: 34 µL/min/mg; AUC at 192 h [27]: 7.2 µM·h; half-life at 1 µM [28]: 0.867 h; CLH [29]: 6.5 µL/min/mg; Cmax [30]: 180 nM; AUC at 192 h [31]: 5.2 µM·h; half-life at 1 µM [32]: > 2 h; CLH [33]: 11 µL/min/mg; half-life [34]: > 2 h; Papp A→B at 2 h, 10000 µM [35]: 7.4 ×10⁻⁶ cm/s; F [36]: 20%; CLH [37]: 2.5 µL/min/mg; half-life [38]: 1.4 h; CLH [39]: 5.7 µL/min/mg
